Experimental data: patent US11707511B2, “Vaccine compositions and methods of using the same” (The Board of Supervisors of Louisiana State University and …, priority 2017, dated 2023)
Entries after “also recorded” stand apart in the source; their conditions may differ.

Key:
C. albicans 3153A = test: Amp B - antibody combination therapy of mice with disseminated candidiasis; assay type: in vivo, Candida albicans; conditions: BALB/c mice, Amp B 0.5 mg/kg
Description: Mice were then given by i.v. of 5×10e5 of C. albicans 3153A yeast cells, 8 hour later the mice received i.p. 0.5 mg Amp B/kg body weight with each mAb (E2-9, M2-4, 2D5F7 and 2B10C1). Mice without any treatment and mice treated with antifungal drug alone were used as controls. Survival curves were scored and MST were measured.

HLA-DR types = conditions: of the most common HLA-DR types tested to date; cited from earlier work
[1] = when incorporated into several peptide antigens; average; cited from earlier work

With `C[C@@H]1[C@H](O)[C@@H](C)/C=C/C=C/C=C/C=C/C=C/C=C/C=C/[C@H](O[C@@H]2O[C@H](C)[C@@H](O)[C@H](N)[C@@H]2O)C[C@@H]2O[C@](O)(C[C@@H](O)C[C@@H](O)[C@H](O)CC[C@@H](O)C[C@@H](O)CC(=O)O[C@H]1C)C[C@H](O)[C@H]2C(=O)O` [Amp B, amphotericin B] the “therapeutic effect / survival time” value (C. albicans 3153A; treatment 8 hours post-infection, in words) was “the same susceptible to the disease as mice that received no Amp B; also recorded: no therapeutic effect” and the “MST (mean survival times)” value (C. albicans 3153A; Table 16, 5×10e5 C. albicans 3153A i.v., treatment i.p. 8 hours post-infection) was 14.5 ± 3.7 days.

In the case of AKFVAAWTLKAAA [PADRE], the “HLA-DR types bound with high or intermediate affinity” value (HLA-DR types) is given as 15 of 16.

For RGD, the “enhancement of antibody titers” value [1] is given as 10 times.
